Here are results for 24 molecules from patent publication US4446047A, “Pleochroic anthraquinone dyes” (Imperial Chemical Industries PLC, priority 1981, dated 1984).

The nature of data set [1]: Order parameter in liquid crystal medium E43. It is filed as physicochemical. The settings on record: E43, 20° C. As to the method: (§1) In order to provide maximum contrast between the two states it is important that the guest molecules adopt as closely as possible the time averaged orientation of the host, however this is achieved only to a limited degree because of random thermal fluctuations. The degree to which the orientation varies from the ideal is measured by a quantity known as the order parameter S which is given by the following equation: […]
where cos^2 θ is a time averaged term and θ is the instantaneous angular orientation of the molecules with respect to the time averaged orientation of the host molecules.

Data set [2] can be described thus: Absorption maximum in liquid crystal medium E43. It is filed as physicochemical. The settings on record: E43, 20° C.; for max: HPLC fractions, Table 3; for λmax: Table 4.
Text: (§15) Detection was by means of a u.v. source (254 nm) and samples, corresponding to all the peaks in the chromatogram, were collected.
Data set [3] can be described thus: Order parameter in other liquid crystal media (hosts) / liquid crystal materials. It is filed as physicochemical. The settings on record: general statement. As to the method:
as §1
where cos^2 θ is a time averaged term and θ is the instantaneous angular orientation of the molecules with respect to the time averaged orientation of the host molecules. The determination of the value of the order parameter S is well understood in the art, see for example the paper, "A new absorptive mode reflective liquid crystal display device", by D. L. White and G. N. Taylor in the Journal of Applied Physics, 1974, 45, pages […] to 4723.
(§2) The properties of some of the dyes described in the Examples were also measured in other liquid crystal media (hosts) at 20° C., unless otherwise stated, and the results are set out in Table 5.
(§3) The liquid crystal materials referred to in Table 5 as Hosts 1 to 12 have the following compositions:
(§4) Host 1 is the liquid crystal material E7, available from BDH Chemicals Ltd, which includes the compounds:
(§5) Host 2 is the liquid crystal material ZLI 1132, available from E Merck & Co, which includes the following compounds:
(§6) Host 3 is the liquid crystal material ZLI 1695, available from E Merck & Co, Darmstadt, West Germany. This has a clearing point (nematic to isotropic transition temperature) of 72° C.
(§7) Host 4 is a mixture of alkyl-cyanophenyl-dioxanes containing n-propyl, n-pentyl and n-heptyl chains.
(§8) Host 5 is the liquid crystal material ZLI 1565, available from E Merck & Co. This has a clearing point of 85° C.
(§9) Host 6 is the liquid crystal material ZLI 1624, available from E Merck & Co. This has a clearing point of 87° C.
(§10) Host 8 is the liquid crystal material RO-TN 430 available from Hoffmann La Roche Co. This has a clearing point of 69° C.
(§11) Host 9 is a mixed bicyclo-octane liquid crystal material containing the following compounds:
(§12) Host 10 is a mixture of liquid crystal materials based mainly on cyanobiphenyls and available from BDH Chemicals Ltd under the name E61.
(§13) Host 11 is a mixture of liquid crystal materials based mainly on cyanobiphenyls and available from BDH Chemicals Ltd under the name E49.
(§14) Host 12 is a mixture of fluorobicyclo(2,2,2)octane esters having negative anisotropy and containing a mixture of two compounds of the following formula: […]

Data set [4] can be described thus: Molar extinction coefficient in chloroform. It is filed as physicochemical. As to the method:
To a mixture of 9.4 g of 2,7-di-n-pentyl-4,5-dinitrochrysazin from Example 25(b) in 200 ml of pyridine at 20° C. there was added a solution of 2.2 ml of thiophenol in 50 ml of pyridine. The colour of the mixture gradually changed from orange-brown to red and after 2 hours at 20° C. was drowned into water, filtered, washed successively with water and methanol and dried to yield 9.5 g of product (88% theory). The structure was confirmed by mass spectrometry and elemental analysis, C=67.5 (67.5) H=5.8 (5.8) S=6.7 (6.0) and N=3.0 (2.7).
To a mixture of 1.7 ml of 4-t-butylphenylmercaptan and 0.4 g of KOH in 50 ml of isopropanol at 60° C. was added 3.7 g of the product of Example 25(c) and the temperature raised to 80° C. for 1.5 hour. It was then cooled to room temperature, filtered, washed successively with isopropanol and methanol and dried to give 3.5 g of product. After recrystallisation from petroleum ether, the structure was confirmed by mass spectrometry and elemental analysis, C=73.0 (73.6) H=6.5 (6.8) S=9.1 (9.8).
The process of Example 25(c) was repeated using 9.6 g of 2,7-n-heptyl-4,5-dinitrochrysazin in place of the 9.4 g of 2,7-di-n-pentyl-4,5-dinitrochrysazin. The structure was confirmed by mass spectrometry.
The process of Example 25(d) was repeated using 3.8 g of 2,7-di-n-heptyl-4-phenylthio-5-nitrochrysazin in place of the 3.7 g of 2,7-di-n-pentyl-4-phenylthio-5-nitrochrysazin. After recrystallisation from petroleum ether, the structure was confirmed by mass spectrometry.

Data set [5] can be described thus: Solubility in other liquid crystal media (hosts) / liquid crystal materials. It is filed as physicochemical. The following applies: general statement. As to the method:
as §2, §3, §4, §5, §6, §7, §8, §9, §10, §11, §12, §13, §14

Data set [6] can be described thus: Solubility in liquid crystal material E43. The settings on record: E43, 20° C., HPLC fractions, Table 3.
Experimental: The solubility of the product was measured in liquid crystal material E43 marketed by BDH Chemicals Limited of Broom Road, Poole, Dorset, England.
as §15

As to `CC(C)(C)c1ccc(Sc2ccc(Sc3ccc(C(C)(C)C)cc3)c3c2C(=O)c2c(Sc4ccc(C(C)(C)C)cc4)ccc(Sc4ccc(C(C)(C)C)cc4)c2C3=O)cc1` (single isomer, unassigned) [1,4,5,8-tetrakis(4-t-butylphenylthio)anthraquinone, reference compound], the “Order Parameter” value in data set [1] (HPLC fractions, Table 3) is 0.78. Also, the max in data set [2] stood at 550 nm.
For `O=C1c2c(Sc3ccccc3)ccc(Sc3ccccc3)c2C(=O)c2c(Sc3ccccc3)ccc(Sc3ccccc3)c21` (single isomer, unassigned) [1,4,5,8-tetrakis(phenylthio)anthraquinone, reference compound] the same measures were 0.78 and 550 nm.
On to `CC(CCc1cc(N)c2c(c1O)C(=O)c1c(O)c(CCC(C)CC(C)(C)C)cc(Sc3ccccc3)c1C2=O)CC(C)(C)C` (stereo not shown) [23(d), 1,8-dihydroxy-2,7-di-nonyl-4-phenylthio-5-aminoanthraquinone], for which the “Order Parameter” value in data set [1] (Table 4) was 0.74. In data set [2], the λmax is reported as 565/610.
With `CC(CCc1cc(Sc2ccccc2)c2c(c1O)C(=O)c1c(O)c(CCC(C)CC(C)(C)C)cc(Sc3ccccc3)c1C2=O)CC(C)(C)C` (stereo not shown) [23(f), 1,8-dihydroxy-2,7-dinonyl-4,5-diphenylthio-AQ], the “Order Parameter” value in data set [1] (Table 4) amounted to 0.72. The molecule further came in with a λmax in data set [2] of 590 nm.
For `CCCCCCCCCCCCc1cc(Sc2ccccc2)c2c(c1O)C(=O)c1c(O)c(CCCCCCCCCCCC)cc(Sc3ccc(C(C)(C)C)cc3)c1C2=O` [24(d), 1,8-dihydroxy-2,7-didodecyl-4-phenylthio-5-(4-t-butylphenylthio)-AQ] the same measures were 0.83 and 590 nm.
For `CCCCCCCc1cc(Sc2ccccc2)c2c(c1O)C(=O)c1c(O)c(CCCCCCC)cc(Sc3ccc(C(C)(C)C)cc3)c1C2=O` [26(d), 2,7-Di-n-heptyl-4-phenylthio-5-(4-t-butylphenylthio)chrysazin], in data set [3], the “order parameter in liquid crystal materials (in words)” value is reported as “high”. In addition, the molar extinction coefficient in data set [4] (592 nm) was 19,650. In addition, the “solubility in liquid crystal materials (in words)” value in data set [5] is recorded as “particularly good”. The “Order Parameter” value in data set [1] (Table 4) was 0.78. In addition, the λmax in data set [2] is 592 nm.
Take `Cc1cccc(Sc2cccc3c2C(=O)c2cccc(Sc4ccccc4)c2C3=O)c1` [Example 12, 1-phenylthio-5(3-methylphenylthio)AQ]: in data set [1] (Table 4), the “Order Parameter” value is recorded as 0.78. The molecule also returned a λmax in data set [2] of 464 nm.
For `Cc1ccc(Sc2cccc3c2C(=O)c2cccc(Sc4ccccc4)c2C3=O)cc1` [Example 13, 1-phenylthio-5(4-methylphenylthio)AQ] the same measures were 0.80 and 464 nm.
For `CCCCSc1cccc2c1C(=O)c1cccc(Sc3ccccc3)c1C2=O` [Example 14, 1-phenylthio-5(n-butylthio)AQ] the same measures were 0.75 and 470 nm.
For `O=C1c2cccc(Sc3ccc(-c4ccccc4)cc3)c2C(=O)c2cccc(Sc3ccccc3)c21` [Example 15, 1-phenylthio-5(4-phenylphenylthio)AQ] the same measures were 0.78 and 460 nm.
With `O=C1c2cccc(SC3CCCCC3)c2C(=O)c2cccc(Sc3ccccc3)c21` [Example 16, 1-phenylthio-5-cyclohexylthio-AQ], the “Order Parameter” value in data set [1] (Table 4) is reported as 0.81. The molecule further had a λmax in data set [2] of 465 nm.
For `CC(C)(C)c1ccc(Sc2ccc(N)c3c2C(=O)c2c(N)ccc(Sc4ccccc4)c2C3=O)cc1` [Example 18, 1-phenylthio-5(4-t-butylphenylthio)-4,8-diamino-AQ] the same measures were 0.73 and 605 nm.
Turning to `CC(C)(C)c1ccc(Sc2cccc3c2C(=O)c2c(Sc4ccccc4)ccc(Sc4ccc(C(C)(C)C)cc4)c2C3=O)cc1` [Example 22, 1,5-di(4-t-butylphenylthio)-4-phenylthio-AQ], in data set [1] (Table 4), the “Order Parameter” value came to 0.81. Besides, the λmax in data set [2] is 520 nm.
For `CC(CCc1cc(Sc2ccccc2)c2c(c1O)C(=O)c1c([N+](=O)[O-])cc(CCC(C)CC(C)(C)C)c(O)c1C2=O)CC(C)(C)C` (stereo not shown) [Example 23(a), 1,5-dihydroxy-2,6-dinonyl-4-phenylthio-8-nitroanthraquinone] the same measures were 0.72 and 565/610.
On to `CC(CCc1cc(N)c2c(c1O)C(=O)c1c(Sc3ccccc3)cc(CCC(C)CC(C)(C)C)c(O)c1C2=O)CC(C)(C)C` (stereo not shown) [Example 23(c), 1,5-dihydroxy-2,6-dinonyl-4-phenylthio-8-aminoanthraquinone], for which, in data set [1] (Table 4), the “Order Parameter” value is on record as 0.73. Besides, the λmax in data set [2] was 565/610.
For `CC(CCc1cc(Sc2ccccc2)c2c(c1O)C(=O)c1c(Sc3ccccc3)cc(CCC(C)CC(C)(C)C)c(O)c1C2=O)CC(C)(C)C` (stereo not shown) [Example 23(e), 1,5-dihydroxy-2,6-dinonyl-4,8-diphenylthio-AQ] the same measures were 0.77 and 590 nm.
As for `CCCCCc1cc(Sc2ccccc2)c2c(c1O)C(=O)c1c(O)c(CCCCC)cc([N+](=O)[O-])c1C2=O` [Example 25(c), 2,7-Di-n-pentyl-4-phenylthio-5-nitrochrysazin], the molar extinction coefficient in data set [4] (540 nm) is on record as 12,541.
`CCCCCc1cc(Sc2ccccc2)c2c(c1O)C(=O)c1c(O)c(CCCCC)cc(Sc3ccc(C(C)(C)C)cc3)c1C2=O` [Example 25(d), 2,7-di-n-pentyl-4-phenylthio-5-(4-t-butylphenylthio)chrysazin]: the molar extinction coefficient in data set [4] (592 nm) is reported as 19,183. Moreover, in data set [1] (Table 4), the “Order Parameter” value is listed as 0.77. The molecule also showed a λmax in data set [2] of 592 nm.
With `CCCCCCCc1cc(Sc2ccccc2)c2c(c1O)C(=O)c1c(O)c(CCCCCCC)cc([N+](=O)[O-])c1C2=O` [Example 26(c), 2,7-Di-n-heptyl-4-phenylthio-5-nitrochrysazin], the molar extinction coefficient in data set [4] (540 nm) is given as 12,095.
Consider `CC(C)(C)c1ccc(Sc2ccc(Sc3ccccc3)c3c2C(=O)c2c(Sc4ccc(C(C)(C)C)cc4)ccc(Sc4ccc(C(C)(C)C)cc4)c2C3=O)cc1` [Fraction 2, tris-(t-butylphenylthio)-phenylthio-AQ], for which, in data set [1] (HPLC fractions, Table 3), the “Order Parameter” value is 0.78. In data set [2], this molecule registered a max of 550 nm.
For the molecule `CC(C)(C)c1ccc(Sc2ccc(Sc3ccccc3)c3c2C(=O)c2c(Sc4ccccc4)ccc(Sc4ccccc4)c2C3=O)cc1` [Fraction 5, tris-(phenylthio)-t-butylphenylthio-AQ], the “Order Parameter” value in data set [1] (HPLC fractions, Table 3) is on record as 0.78. In data set [2], this molecule displayed a max of 550 nm.
With “bis-(phenylthio)-bis-(t-butylphenylthio)AQ [Fraction 3]”, the Solubility in data set [6] was less than 0.5%.
As for “bis-(phenylthio)-bis-(t-butylphenylthio)AQ [Fraction 3a]”, the “Order Parameter” value in data set [1] (HPLC fractions, Table 3) is 0.78. The molecule further registered a max in data set [2] of 550 nm.
For “bis-(phenylthio)-bis-(t-butylphenylthio)AQ [Fraction 4]” the same measures were 0.77 and 550 nm.
